Article PMC7846792, “Perception of a divergent family of phytocytokines by the Arabidopsis receptor kinase MIK2” (Nature Communications, 2021)
One block for each substance: values may come before it. No end group written: not given here.

Columns and labels:
A. thaliana seedlings = experiment: Seedling growth inhibition (fresh weight); type: in vivo, Arabidopsis thaliana; conditions: mock mean = 1
Method: Four-day-old seedlings growing on MS plates were transferred individually into separate wells of transparent 48-well tissue culture plates (Greiner Bio-One) containing 500 μL of liquid MS media with/without elicitor addition. The plates were then transferred back to the growth conditions for an additional 10 days before seedlings were blot-dried and weighed.

[1] = molecular target: MIK2 ectodomain (MIK2^ECD, residues 1–709) (Arabidopsis thaliana) (UniProt Q8VZG8); experiment: ITC; 200 μM SCOOP12 in the syringe injected into 20 μM MIK2 ectodomain in the cell; 25 °C; 20 mM sodium citrate pH 5.0, 150 mM NaCl; N fitted to 1
Chain of MIK2 ectodomain (MIK2^ECD, residues 1–709) (Arabidopsis thaliana) (Q8VZG8 44-709): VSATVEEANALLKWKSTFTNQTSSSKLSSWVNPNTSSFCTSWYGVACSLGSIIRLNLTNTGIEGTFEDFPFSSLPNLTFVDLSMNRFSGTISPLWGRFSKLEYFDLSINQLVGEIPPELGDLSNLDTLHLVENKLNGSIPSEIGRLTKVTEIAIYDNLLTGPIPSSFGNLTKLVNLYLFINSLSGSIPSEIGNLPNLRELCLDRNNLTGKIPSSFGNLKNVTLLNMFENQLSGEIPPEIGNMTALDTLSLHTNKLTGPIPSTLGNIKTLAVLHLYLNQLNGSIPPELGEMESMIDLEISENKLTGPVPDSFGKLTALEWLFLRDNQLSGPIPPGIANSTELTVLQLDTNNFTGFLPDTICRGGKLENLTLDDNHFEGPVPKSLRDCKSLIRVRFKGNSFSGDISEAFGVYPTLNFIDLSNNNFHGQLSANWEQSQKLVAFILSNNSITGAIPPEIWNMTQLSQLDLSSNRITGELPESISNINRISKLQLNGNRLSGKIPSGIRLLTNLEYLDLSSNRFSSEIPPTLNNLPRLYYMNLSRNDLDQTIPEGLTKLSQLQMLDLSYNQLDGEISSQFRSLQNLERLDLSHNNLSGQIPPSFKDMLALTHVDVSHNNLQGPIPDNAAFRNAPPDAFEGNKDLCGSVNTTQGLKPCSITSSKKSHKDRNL

Substance: FTGPSGSGHGGGR [SCOOP10]
- Seedling fresh weight (Fig3C), relative to mock (A. thaliana seedlings; Col-0, 1 μM, replicate 1): 1.053
- Seedling fresh weight (Fig3C), relative to mock (A. thaliana seedlings; Col-0, 1 μM, replicate 2): 0.7731
- Seedling fresh weight (Fig3C), relative to mock (A. thaliana seedlings; Col-0, 1 μM, replicate 3): 0.8401
- Seedling fresh weight (Fig3C), relative to mock (A. thaliana seedlings; Col-0, 1 μM, replicate 4): 1.102
- Seedling fresh weight (Fig3C), relative to mock (A. thaliana seedlings; Col-0, 1 μM, replicate 5): 0.9923
- Seedling fresh weight (Fig3C), relative to mock (A. thaliana seedlings; Col-0, 1 μM, replicate 6): 0.9101
- Seedling fresh weight (Fig3C), relative to mock (A. thaliana seedlings; Col-0, 1 μM, replicate 7): 0.9071
- Seedling fresh weight (Fig3C), relative to mock (A. thaliana seedlings; Col-0, 1 μM, replicate 8): 0.8705
- Seedling fresh weight (Fig3C), relative to mock (A. thaliana seedlings; Col-0, 1 μM, replicate 9): 0.8462
- Seedling fresh weight (Fig3C), relative to mock (A. thaliana seedlings; Col-0, 1 μM, replicate 10): 0.7792
- Seedling fresh weight (Fig3C), relative to mock (A. thaliana seedlings; Col-0, 1 μM, replicate 11): 0.9497
- Seedling fresh weight (Fig3C), relative to mock (A. thaliana seedlings; Col-0, 1 μM, replicate 12): 0.9679
- Seedling fresh weight (Fig3C), relative to mock (A. thaliana seedlings; Col-0, 10 μM, replicate 1): 0.6611
- Seedling fresh weight (Fig3C), relative to mock (A. thaliana seedlings; Col-0, 10 μM, replicate 2): 0.655
- Seedling fresh weight (Fig3C), relative to mock (A. thaliana seedlings; Col-0, 10 μM, replicate 3): 0.649
- Seedling fresh weight (Fig3C), relative to mock (A. thaliana seedlings; Col-0, 10 μM, replicate 4): 0.4731
- Seedling fresh weight (Fig3C), relative to mock (A. thaliana seedlings; Col-0, 10 μM, replicate 5): 0.5034
- Seedling fresh weight (Fig3C), relative to mock (A. thaliana seedlings; Col-0, 10 μM, replicate 6): 0.7187
- Seedling fresh weight (Fig3C), relative to mock (A. thaliana seedlings; Col-0, 10 μM, replicate 7): 0.652
- Seedling fresh weight (Fig3C), relative to mock (A. thaliana seedlings; Col-0, 10 μM, replicate 8): 0.7096
- Seedling fresh weight (Fig3C), relative to mock (A. thaliana seedlings; Col-0, 10 μM, replicate 9): 0.5944
- Seedling fresh weight (Fig3C), relative to mock (A. thaliana seedlings; Col-0, 10 μM, replicate 10): 0.5519
- Seedling fresh weight (Fig3C), relative to mock (A. thaliana seedlings; Col-0, 10 μM, replicate 11): 0.555
- Seedling fresh weight (Fig3C), relative to mock (A. thaliana seedlings; Col-0, 10 μM, replicate 12): 0.6884
- Seedling fresh weight (Fig3C), relative to mock (A. thaliana seedlings; mik2-1, 1 μM, replicate 1): 0.8644
- Seedling fresh weight (Fig3C), relative to mock (A. thaliana seedlings; mik2-1, 1 μM, replicate 2): 1.019
- Seedling fresh weight (Fig3C), relative to mock (A. thaliana seedlings; mik2-1, 1 μM, replicate 3): 1.022
- Seedling fresh weight (Fig3C), relative to mock (A. thaliana seedlings; mik2-1, 1 μM, replicate 4): 0.7702
- Seedling fresh weight (Fig3C), relative to mock (A. thaliana seedlings; mik2-1, 1 μM, replicate 5): 0.8139
- Seedling fresh weight (Fig3C), relative to mock (A. thaliana seedlings; mik2-1, 1 μM, replicate 6): 0.8307
- Seedling fresh weight (Fig3C), relative to mock (A. thaliana seedlings; mik2-1, 1 μM, replicate 7): 0.9619
- Seedling fresh weight (Fig3C), relative to mock (A. thaliana seedlings; mik2-1, 1 μM, replicate 8): 1.049
- Seedling fresh weight (Fig3C), relative to mock (A. thaliana seedlings; mik2-1, 1 μM, replicate 9): 1.086
- Seedling fresh weight (Fig3C), relative to mock (A. thaliana seedlings; mik2-1, 1 μM, replicate 10): 1.002
- Seedling fresh weight (Fig3C), relative to mock (A. thaliana seedlings; mik2-1, 1 μM, replicate 11): 1.026
- Seedling fresh weight (Fig3C), relative to mock (A. thaliana seedlings; mik2-1, 1 μM, replicate 12): 1.123
- Seedling fresh weight (Fig3C), relative to mock (A. thaliana seedlings; mik2-1, 10 μM, replicate 1): 0.8284
- Seedling fresh weight (Fig3C), relative to mock (A. thaliana seedlings; mik2-1, 10 μM, replicate 2): 1.096
- Seedling fresh weight (Fig3C), relative to mock (A. thaliana seedlings; mik2-1, 10 μM, replicate 3): 0.9366
- Seedling fresh weight (Fig3C), relative to mock (A. thaliana seedlings; mik2-1, 10 μM, replicate 4): 0.8791
- Seedling fresh weight (Fig3C), relative to mock (A. thaliana seedlings; mik2-1, 10 μM, replicate 5): 0.9096
- Seedling fresh weight (Fig3C), relative to mock (A. thaliana seedlings; mik2-1, 10 μM, replicate 6): 0.8453
- Seedling fresh weight (Fig3C), relative to mock (A. thaliana seedlings; mik2-1, 10 μM, replicate 7): 0.967
- Seedling fresh weight (Fig3C), relative to mock (A. thaliana seedlings; mik2-1, 10 μM, replicate 8): 0.94
- Seedling fresh weight (Fig3C), relative to mock (A. thaliana seedlings; mik2-1, 10 μM, replicate 9): 0.9806
- Seedling fresh weight (Fig3C), relative to mock (A. thaliana seedlings; mik2-1, 10 μM, replicate 10): 0.896
- Seedling fresh weight (Fig3C), relative to mock (A. thaliana seedlings; mik2-1, 10 μM, replicate 11): 1.031
- Seedling fresh weight (Fig3C), relative to mock (A. thaliana seedlings; mik2-1, 10 μM, replicate 12): 1.096

- Kd [1]: 4.6 µM
Substance: SERINE RICH ENDOGENOUS PEPTIDE 12 (SCOOP12) synthetic peptide
